The record followed here is patent publication US20250282810A1, “Chemical Synthesis Method and Application of V. Cholerae Serotype O100 O-Antigen Oligosaccharides” (priority 2024, published 2025).

The experiment concerns rabbit serum IgG antibodies. Briefly: Glycan microarray screening of synthetic oligosaccharides with rabbit serum. It is filed as binding. To be noted: oligosaccharides printed at 0.1 mM and 0.5 mM, LPS at 1 mg/mL and 5 mg/mL, rabbit serum 1:200, cy3 goat anti-rabbit IgG 1:400. As for the experimental part: . Then, a microarray spotter was used for printing distribution grids shown in FIG. 9B onto the area of a microarray (9 mm long*9 mm wide), and incubation was performed overnight at room temperature and 65% humidity to covalently bind oligosaccharide fragments to the microarray. After incubation, a mixed solution (pH=9) of […] ethanolamine and […] sodium phosphate was used for processing at 50° C. for 1 h, and then, ultrapure water was used for washing.
The glycan microarray was blocked with a PBS solution containing 3% BSA at room temperature for 1 h. The glycan microarray was washed once with a PBS solution containing 0.1% Tween 20 (PBST solution), washed twice with a PBS solution, and spin-dried, and the glycan microarray was loaded into a 16-well incubator (ProPlate). 120 microliters of rabbit serum sample diluted in a ratio of 1:200 in a PBS solution containing 1% BSA was added to each well, and incubated overnight in a moist chamber at 4° C. in the dark to allow rabbit serum IgG antibodies identifying the synthetic oligosaccharide fragments to bind to the synthetic oligosaccharides on the glycan microarray, and the sample was removed and washed three times with 200 microliters of PBST solution to remove unbound serum IgG antibodies. […]

As for D-FucNAc [synthetic sugar 6*], the “binding ability to IgG antibodies (fluorescence signals)” value is “did not bind to antibodies”.
